Drawing on patent US20220324835A1 (Nurix Therapeutics, Inc., priority 2018, published 2022), this text covers IC50, Kd and fold induction for eight molecules.

Test [1] has as its target T1, Cbl-b (Homo sapiens, UniProt Q13191). Put plainly: Cbl-b inhibition assay (Cbl-b activity assay, FRET, Biological Example 1; 100 mM NaCl, 60 nM Src kinase). Type of test: biochemical. The settings on record: upper bound stated in text lists; read-out: IC50 values in the Cbl-b inhibition assay of Biological Example 1. The method in brief: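 TR-FRET assay using N-terminal biotinylated Avi-tagged Cbl-b bound to streptavidin-terbium, Src kinase for Cbl-b phosphorylation, and UbcH5B irreversibly conjugated to Bodipy-Fluorescein-ubiquitin. Phosphorylated Cbl-b binds UbcH5B-Ub, bringing the fluorophores together; inhibition is read as loss of FRET signal.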

Another test has as its target Cbl-b (residues 36-427) (Homo sapiens, UniProt Q13191). The test is described as follows: Cbl-b binding assay (SPR, Biacore T200). The conditions noted are these: 20° C., 1:1 binding model. A digest of the protocol: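 Steps: capture protein on NeutrAvidin surface; inject compound dilutions (8 or 10 points from 100 or 50 μM) 50 s; allow 90-180 s dissociation; regenerate 20 s with 0.3 M NaCl. Runs at 20° C in HEPES pH 7.5/100 mM NaCl/2% DMSO; 1:1 fitting.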
On the technique in general: In SPR one partner is held on a chip, and binding of the other changes the refractive index at the surface.

In test [2] the test system is T-cell. The test is described as follows: IL-2 secretion from T-cells co-stimulated with anti-CD3 and anti-CD28 antibody (Biological Example 2). Type of test: cell-based, human. The settings on record: Homo sapiens, T-cell, primary human total T-cells, baseline = anti-CD3/anti-CD28 stimulated cells without inhibitor, read-out: IL-2 secretion, Anti-CD3/Anti-CD28 stimulation, fold change over baseline; for fold induction at 0.3 µM: 0.3 μM compound; for fold induction at 1 µM: 1 μM compound; for fold induction at 4 µM: 4 μM compound. The method in brief: (§1)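 T-cells were stimulated with anti-CD3 antibody alone or with anti-CD28 antibody, in the presence or absence of Cbl-b inhibitor. IL-2 secretion or CD25 surface staining was measured, and values expressed as fold over the uninhibited baseline […].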

Test [3] has as its target T1, Cbl-b. Put plainly: Cbl-b activity assay (Cbl-b inhibition assay), TR-FRET of Cbl-b interaction with UbcH5B-Ub. It is filed as biochemical. The conditions noted are these: assay buffer with 100 mM NaCl, 60 nM Src kinase; read-out: Cbl-b activity IC50. A digest of the protocol: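 UbcH5B (C85K) conjugated to N-terminally Bodipy-Fluorescein-labeled ubiquitin served as the fluorescent partner. After compound preincubation, Src kinase (60 nM) with 1 mM ATP and 5 mM MgCl2 (final) was added for 1.5 h, followed by a further 1 h incubation. Some values were obtained with 50 mM NaCl and 30 nM Src.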
(In general: Time-resolved FRET reads energy transfer from a long-lived donor to a nearby acceptor.)

Test [4] concerns T-cell. Put plainly: IL-2 secretion from T-cells stimulated with anti-CD3 antibody alone (Biological Example 2). The conditions noted are these: primary human total T-cells, read-out: IL-2 secretion, Anti-CD3 stimulation, fold change over baseline; for fold induction at 1 µM: 1 μM compound; for fold induction at 8 µM: 8 μM compound. Type of test: cell-based.
Test [5] concerns T-cell. Put plainly: CD25 cell surface staining on T-cells co-stimulated with anti-CD3 and anti-CD28 antibody (Biological Example 2). It is filed as cell-based, human. The conditions noted are these: Homo sapiens, T-cell, primary human total T-cells, baseline = anti-CD3/anti-CD28 stimulated cells without inhibitor, read-out: CD25 staining, Anti-CD3/Anti-CD28 stimulation, fold change over baseline; for fold induction at 0.3 µM: 0.3 μM compound; for fold induction at 1 µM: 1 μM compound; for fold induction at 4 µM: 4 μM compound. The method in brief: as §1

Test [6] has as its system T-cell. The test is described as follows: CD25 cell surface staining on T-cells stimulated with anti-CD3 antibody alone (Biological Example 2). It is filed as cell-based. The conditions noted are these: primary human total T-cells, baseline = anti-CD3/anti-CD28 stimulated cells without inhibitor, read-out: CD25 staining, Anti-CD3 stimulation, fold change over baseline; for fold induction at 1 µM: 1 μM compound; for fold induction at 8 µM: 8 μM compound.

Each structure is given as a SMILES string.

T1 sequence (Q13191 36-427): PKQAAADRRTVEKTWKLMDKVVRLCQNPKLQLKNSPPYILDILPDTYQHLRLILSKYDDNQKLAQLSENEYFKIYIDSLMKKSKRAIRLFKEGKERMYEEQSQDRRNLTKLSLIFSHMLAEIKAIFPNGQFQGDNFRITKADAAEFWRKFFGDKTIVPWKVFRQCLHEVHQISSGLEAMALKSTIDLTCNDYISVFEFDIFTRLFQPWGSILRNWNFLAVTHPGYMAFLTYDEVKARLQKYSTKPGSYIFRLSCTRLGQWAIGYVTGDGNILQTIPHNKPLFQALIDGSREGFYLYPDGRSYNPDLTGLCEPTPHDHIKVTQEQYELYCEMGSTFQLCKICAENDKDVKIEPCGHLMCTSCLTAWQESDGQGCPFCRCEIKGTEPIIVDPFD
Chain of Cbl-b (residues 36-427) (Q13191 36-427): as above

What is called IC50 is the concentration that gives 50% inhibition. In general, Kd refers to the constant that tells how readily two partners part at equilibrium. Lower therefore signals a tighter complex. On to `Cc1conc1C[C@@H](C)c1cccc(N2Cc3c(cc(C(=O)N4CC[C@H](O)C4)cc3C(F)(F)F)C2=O)c1` [Compound 407, 6-((S)-3-Hydroxypyrrolidine-1-carbonyl)-2-(3-((R)-1-(4-methylisoxazol-3-yl)propan-2-yl)phenyl)-4-(trifluoromethyl)isoindolin-1-one], for which the IC50 at Cbl-b [1] was not above 0.1 µM; on Cbl-b [3], less than 0.1 µM. The molecule also showed a Kd on Cbl-b (residues 36-427) of less than 0.1 µM. Moreover, the fold induction at 0.3 µM is 2.51 to 5 in the test with T-cell [2] and 1.01 to 1.3 in the test on T-cell [5]. The fold induction at 1 µM in the test on T-cell [2] was 5 to 7.5; in the test on T-cell [4] it was 0.101 to 0.15; in the test with T-cell [5], 1.01 to 1.3; with T-cell [6], more than 1. Moreover, the fold induction at 4 µM was more than 7.5 with T-cell [2] and 1.01 to 1.3 with T-cell [5]. In addition, the fold induction at 8 µM is more than 0.201 in the test with T-cell [4] and more than 1 with T-cell [6].
For the molecule `Cn1cnnc1[C@@H]1C[C@@H]1c1cccc(N2Cc3c(cc(C#N)cc3C(F)(F)F)C2=O)c1` [Compound 408, 2-(3-((1S,2R)-2-(4-methyl-4H-1,2,4-triazol-3-yl)cyclopropyl)phenyl)-3-oxo-7-(trifluoromethyl)isoindoline-5-carbonitrile], the IC50 is not above 0.3 µM on Cbl-b [1] and 0.1 to 0.3 µM at Cbl-b [3]. The Kd at Cbl-b (residues 36-427) lay in the range of 0.1 to 0.3 µM. Also, the values for the fold induction at 0.3 µM with T-cell [2] and in the test with T-cell [5] were 1.01 to 2.5 and 1.01 to 1.3, respectively. The fold induction at 1 µM was 1.01 to 2.5 with T-cell [2], less than 0.05 in the test with T-cell [4], 1.01 to 1.3 with T-cell [5] and 0.601 to 0.8 in the test with T-cell [6]. The fold induction at 4 µM in the test with T-cell [2] was in the range of 2.51 to 5; in the test on T-cell [5] it was 1.01 to 1.3. Further, the fold induction at 8 µM lay in the range of 0.101 to 0.15 with T-cell [4] and 0.801 to 1 in the test with T-cell [6].
Consider `Cn1cnnc1CC1(c2cccc(N3Cc4c(cc(CN5CCC(F)(F)C5)cc4C(F)(F)F)C3=O)c2)COC1` [Compound 411, 6-((3,3-difluoropyrrolidin-1-yl)methyl)-2-(3-(3-((4-methyl-4H-1,2,4-triazol-3-yl)methyl)oxetan-3-yl)phenyl)-4-(trifluoromethyl)isoindolin-1-one], for which the IC50 on Cbl-b [1] was not above 0.1 µM; at Cbl-b [3], less than 0.1 µM. The Kd on Cbl-b (residues 36-427) was less than 0.1 µM. Further, the fold induction at 0.3 µM in the test with T-cell [2] is 2.51 to 5; in the test on T-cell [5] it was 1.01 to 1.3. The fold induction at 1 µM in the test with T-cell [2] was more than 7.5; in the test on T-cell [4] it was more than 0.201; with T-cell [5], 1.01 to 1.3; with T-cell [6], more than 1. Further, the fold induction at 4 µM with T-cell [2] was more than 7.5; with T-cell [5], 1.01 to 1.3. Moreover, the results for the fold induction at 8 µM in the test with T-cell [4] and in the test with T-cell [6] were more than 0.201 and more than 1, respectively.
For the molecule `CC(c1cc2c(c(C(F)(F)F)c1)CN(c1cccc([C@H](C)Cc3nncn3C)c1)C2=O)N1CC[C@H](O)C1` (stereo partly drawn) [Compound 416, 6-(1-((S)-3-hydroxypyrrolidin-1-yl)ethyl)-2-(3-((R)-1-(4-methyl-4H-1,2,4-triazol-3-yl)propan-2-yl)phenyl)-4-(trifluoromethyl)isoindolin-1-one], the IC50 on Cbl-b [1] was not above 0.1 µM; at Cbl-b [3], less than 0.1 µM. At Cbl-b (residues 36-427), this molecule yielded a Kd of less than 0.1 µM. Moreover, the fold induction at 0.3 µM in the test with T-cell [2] is 2.51 to 5; with T-cell [5], 1.31 to 1.5. For the same molecule, the fold induction at 1 µM is more than 7.5 in the test on T-cell [2], 0.151 to 0.2 with T-cell [4], 1.31 to 1.5 in the test with T-cell [5] and more than 1 with T-cell [6]. The values for the fold induction at 4 µM in the test with T-cell [2] and in the test on T-cell [5] were more than 7.5 and 1.51 to 1.75, respectively. In addition, the fold induction at 8 µM in the test on T-cell [4] was more than 0.201; in the test with T-cell [6], more than 1.
On to `C[C@H](Cc1nncn1C)c1cccc(N2Cc3c(cc(CN4CC(O)C(F)(F)C4)cc3C(F)(F)F)C2=O)c1` (stereo partly drawn) [Compound 417, 6-((3,3-difluoro-4-hydroxypyrrolidin-1-yl)methyl)-2-(3-((R)-1-(4-methyl-4H-1,2,4-triazol-3-yl)propan-2-yl)phenyl)-4-(trifluoromethyl)isoindolin-1-one], for which the IC50 is not above 0.1 µM on Cbl-b [1] and less than 0.1 µM on Cbl-b [3]. The molecule further had a Kd at Cbl-b (residues 36-427) of less than 0.1 µM. For the same molecule, the fold induction at 0.3 µM in the test on T-cell [2] is 2.51 to 5; in the test on T-cell [5], 1.01 to 1.3. For the same molecule, the fold induction at 1 µM is 5 to 7.5 in the test on T-cell [2], 0.101 to 0.15 with T-cell [4], 1.31 to 1.5 with T-cell [5] and more than 1 with T-cell [6]. Besides, the fold induction at 4 µM in the test with T-cell [2] was more than 7.5; in the test on T-cell [5], 1.31 to 1.5. Further, the fold induction at 8 µM with T-cell [4] is more than 0.201; in the test with T-cell [6] it was more than 1.
For `C[C@H](Cc1nncn1C)c1cccc(N2Cc3c(cc(CN4C[C@@H](F)[C@@H](O)C4)cc3C(F)(F)F)C2=O)c1` [Compound 418], the concentration for half-maximal inhibition (IC50) at Cbl-b [1] is not above 0.1 µM; at Cbl-b [3] it was less than 0.1 µM. Also, the Kd on Cbl-b (residues 36-427) is less than 0.1 µM. Besides, the fold induction at 0.3 µM in the test on T-cell [2] was in the range of 2.51 to 5; with T-cell [5], 1.01 to 1.3. Besides, the fold induction at 1 µM with T-cell [2] is 5 to 7.5; with T-cell [4], 0.151 to 0.2; in the test with T-cell [5], 1.31 to 1.5; in the test on T-cell [6] it was more than 1. The values for the fold induction at 4 µM with T-cell [2] and in the test with T-cell [5] were more than 7.5 and 1.31 to 1.5, respectively. Besides, the fold induction at 8 µM was more than 0.201 with T-cell [4] and more than 1 in the test with T-cell [6].
Regarding `CC(O)c1cc2c(c(C(F)(F)F)c1)CN(c1cccc([C@H](C)Cc3nncn3C)c1)C2=O` (stereo partly drawn) [Compound 436, 6-(1-hydroxyethyl)-2-(3-((R)-1-(4-methyl-4H-1,2,4-triazol-3-yl)propan-2-yl)phenyl)-4-(trifluoromethyl)isoindolin-1-one], the figures for the IC50 on Cbl-b [1] and at Cbl-b [3] were not above 0.1 µM and less than 0.1 µM, respectively. The Kd on Cbl-b (residues 36-427) is less than 0.1 µM. Also, the results for the fold induction at 0.3 µM in the test on T-cell [2] and in the test with T-cell [5] were 2.51 to 5 and 1.01 to 1.3, respectively. Also, the fold induction at 1 µM in the test with T-cell [2] is 5 to 7.5; in the test with T-cell [4], 0.151 to 0.2; in the test with T-cell [5], 1.31 to 1.5; with T-cell [6] it was 0.801 to 1. In addition, the fold induction at 4 µM in the test on T-cell [2] is more than 7.5; with T-cell [5], 1.31 to 1.5. For the same molecule, the fold induction at 8 µM is more than 0.201 in the test on T-cell [4] and more than 1 in the test on T-cell [6].
Turning to `CC(O)c1cc2c(c(C(F)(F)F)c1)CN(c1cccc([C@@](C)(F)C(F)(F)c3nncn3C)c1)C2=O` (stereo partly drawn) [Compound 446, 6-(1-hydroxyethyl)-2-(3-((R)-1,1,2-trifluoro-1-(4-methyl-4H-1,2,4-triazol-3-yl)propan-2-yl)phenyl)-4-(trifluoromethyl)isoindolin-1-one], the IC50 at Cbl-b [1] was not above 0.1 µM; on Cbl-b [3], less than 0.1 µM. The molecule further registered a Kd on Cbl-b (residues 36-427) of 0.1 to 0.3 µM. For the same molecule, the values for the fold induction at 0.3 µM in the test on T-cell [2] and in the test with T-cell [5] were 1.01 to 2.5 and 1.01 to 1.3, respectively. Moreover, the fold induction at 1 µM was 1.01 to 2.5 with T-cell [2], 0.051 to 0.1 with T-cell [4], 1.01 to 1.3 in the test on T-cell [5] and 0.801 to 1 in the test with T-cell [6]. Also, the fold induction at 4 µM in the test with T-cell [2] is 5 to 7.5; with T-cell [5], 1.01 to 1.3. The fold induction at 8 µM in the test with T-cell [4] was more than 0.201; in the test on T-cell [6] it was more than 1.
